Test results reported in patent publication US20230406804A1, “PROTEIN KINASE INHIBITORS” (Xavier University of Louisiana, priority 2018, published 2023).
Entries after “also recorded” stand apart in the source; their conditions may differ.

How the values were obtained:
[1] = tested on: MCF7 breast cancer cell lines expressing HER2, HER2Δ16 and empty vector; test: High-throughput cell viability screen at 10 μM (CellTiter-Glo); type: cell-based; conditions: for suppression of cell viability / inhibition in the high-throughput assay: 48 h
Method: (§1) The antagonistic activities of the compounds were tested in an estrogen receptor positive (ER+) breast cancer cell line, MCF7 breast cancer cell lines expressing HER2, HER2Δ16 and empty vector. Lapatinib was used as the positive control. The cells were treated with the compounds at 10 μM concentration for 48 h. After treatment, cell viability was tested using the CellTiter-Glo Assay (Promega).

MCF-7/pcDNA = test: CellTiter-Glo cell viability, IC50; type: cell-based; conditions: Homo sapiens, MCF7, 48 h treatment
Method: as §1, with “(Promega). […] The […] best compounds 7, 9, the mixture of 8a+8b, 25 and 27 were then taken up for further studies.” for “(Promega).”

HER2 residue Y1248 = test: Western blot of HER2 autophosphorylation; type: cell-based; conditions: 10 μM, 2 h; MCF7/pcDNA, MCF7/HER2, MCF7/HER2Δ16
Text: (§2) HER2 is a member of the erbB family of tyrosine kinases, which is comprised of four partial homologous transmembrane receptors: EGFR/HER1 (erbB1), HER2 (erbB2/neu), HER3 (erbB3), and HER4 (erbB4). […] Ligand binding induces homo- or hetero-dimerization through disulfide bond linkage, and leads to receptor activation and tyrosine auto-phosphorylation. HER2 is a preferred dimerization partner due to its high catalytic activity and forms potent heterodimers with EGFR and HER3. HER2, with its intrinsic kinase activity can transphosphorylate other members of the erbB family. HER2 and HERΔ16 are overexpressed in the breast cancer cell lines that have been used in this study, leading to the kinases being constitutively active. Upon dimerization, the constitutively active HER2 and HER2Δ16 receptors can transphosphorylate coexpressed EGFR. The levels of phosphorylated HER2 in the parental MCF-7 cell line were less, resulting in its lack of dimerization with EGFR and its transphosphorylation. Western blots were performed to determine the ability of the compounds to inhibit the activation of the HER2 receptor (FIG. 7). The total and phosphorylated protein were detected upon treatment of each of the cells lines with the compounds 6, 7, 8a+8b, 9, 15, 25, 26, 27 and 28 (2-methyl-4,6-dinitro-1H-indene-1,3(2H)-dione) along with the positive control lapatinib at 10 μM concentration for 2 h. […] Compounds 26 and 28 from FIG. 5 were used as negative controls.

MCF-7/HER2 = test: CellTiter-Glo cell viability, IC50; type: cell-based; conditions: Homo sapiens, MCF7, 48 h treatment
Method: as §1, with “(Promega). […] The […] best compounds 7, 9, the mixture of 8a+8b, 25 and 27 were then taken up for further studies.” for “(Promega).”

MCF-7/HER2Δ16 = test: CellTiter-Glo cell viability, IC50; type: cell-based; conditions: Homo sapiens, MCF7, 48 h treatment, read-out: IC50 MCF-7/HER2D16
Method: as §1, with “(Promega). […] The […] best compounds 7, 9, the mixture of 8a+8b, 25 and 27 were then taken up for further studies.” for “(Promega).”

EGFR residue Y1068 = target: T1, EGFR residue Y1068 (Homo sapiens, UniProt P00533); test: Western blot of EGFR transphosphorylation; type: cell-based; conditions: 10 μM, 2 h; MCF7/pcDNA, MCF7/HER2, MCF7/HER2Δ16
T1 construct: endogenous in cells; host or cells: MCF-7/pcDNA, MCF-7/HER2, MCF-7/HER2Δ16
Text: as §2

[2] = tested on: BT20, MDA-MB-468, MDA-MB-231, SKBR3, BT474, SUM 190PT and SUM 225CWN; test: Growth inhibition of a panel of breast cancer cell lines; type: cell-based; conditions: triple negative, trastuzumab sensitive and trastuzumab resistant cell lines; read-out: IC50 growth inhibition, range over breast cancer cell line panel
Text: (§3) Compound 7 was taken up for further analysis of its ability to inhibit the growth of a panel of breast cancer cell lines of varied types. The panel included the triple negative cell lines BT20, MDA-MB-468 and MDA-MB-231, the trastuzumab sensitive cell lines SKBR3 and BT474, and the trastuzumab resistant cell lines SUM 190PT and SUM 225CWN (FIG. 9).

MDA-MB-231 = test: as above; type: cell-based
Text: as §3

[3] = tested on: protein kinase B 1/2 (AKT1/2); test: Cross kinase panel high-throughput assay; type: biochemical; conditions: 10 μM
Method: (§4) Compound 7 was then subjected to a cross kinase panel high-throughput assay at 10 μM concentration, at Life Technologies, to determine the selectivity of kinase inhibition (FIG. 10). A panel of 120 disease relevant kinases (available with Life Technologies) were studied. 11 kinases were inhibited at 80% or more-protein kinase B 1/2 (also known as AKT1/2), Aurora kinases A/B (AurK A/B), checkpoint kinase 2 (CHEK2), feline sarcoma kinase (FES), fibroblast growth factor 1 (FGFR1), I kappa B kinase B/E (IKK B/E), mitogen activated protein kinase kinase 1 (MAP2K1), mitogen activated protein kinase kinase kinase 8 (MAP3K8), Never in Mitosis (NIMA) related kinase 2 (NEK2), polo-like kinase 1/3 (PLK1/3), serum/glucocorticoid regulated kinase 1 (SGK1) and TEK tyrosine kinase. All these kinases except for CHEK2 are reported to have tumorigenic roles in breast cancer.

[4] = target: mitogen activated protein kinase kinase kinase 8 (MAP3K8) (Homo sapiens, UniProt P41279); test: Cross kinase panel high-throughput assay; type: biochemical
Method: as §4

[5] = tested on: polo-like kinase 1/3 (PLK1/3); test: Cross kinase panel high-throughput assay; type: biochemical; conditions: 10 μM
Method: as §4

[6] = target: fibroblast growth factor 1 (FGFR1) (Homo sapiens, UniProt P11362); test: Cross kinase panel high-throughput assay; type: biochemical
Method: as §4

[7] = target: mitogen activated protein kinase kinase 1 (MAP2K1) (Homo sapiens, UniProt Q02750); test: Cross kinase panel high-throughput assay; type: biochemical
Method: as §4

[8] = target: checkpoint kinase 2 (CHEK2) (Homo sapiens, UniProt O96017); test: Cross kinase panel high-throughput assay; type: biochemical
Method: as §4

TEK tyrosine kinase = TEK tyrosine kinase (Homo sapiens, UniProt Q02763); test: Cross kinase panel high-throughput assay; type: biochemical
Method: as §4

[9] = tested on: Aurora kinases A/B (AurK A/B); test: Cross kinase panel high-throughput assay; type: biochemical; conditions: 10 μM
Method: as §4

[10] = tested on: I kappa B kinase B/E (IKK B/E); test: Cross kinase panel high-throughput assay; type: biochemical; conditions: 10 μM
Method: as §4

[11] = target: T2, Never in Mitosis (NIMA) related kinase 2 (NEK2) (Homo sapiens, UniProt P51955); test: Cross kinase panel high-throughput assay; type: biochemical
T2 sequence (P51955 1-445): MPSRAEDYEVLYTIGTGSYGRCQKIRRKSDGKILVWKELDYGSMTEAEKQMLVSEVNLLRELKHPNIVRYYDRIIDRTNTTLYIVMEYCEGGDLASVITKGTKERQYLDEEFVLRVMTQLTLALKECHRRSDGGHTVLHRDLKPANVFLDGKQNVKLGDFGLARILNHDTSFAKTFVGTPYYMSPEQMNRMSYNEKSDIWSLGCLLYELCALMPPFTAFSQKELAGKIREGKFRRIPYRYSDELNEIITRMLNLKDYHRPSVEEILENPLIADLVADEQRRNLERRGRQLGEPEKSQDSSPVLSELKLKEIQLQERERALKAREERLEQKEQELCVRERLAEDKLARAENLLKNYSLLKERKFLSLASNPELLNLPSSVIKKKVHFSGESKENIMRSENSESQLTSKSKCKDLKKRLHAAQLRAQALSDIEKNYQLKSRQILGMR
Method: as §4

[12] = target: feline sarcoma kinase (FES) (Homo sapiens, UniProt P07332); test: Cross kinase panel high-throughput assay; type: biochemical
Method: as §4

[13] = target: T3, serum/glucocorticoid regulated kinase 1 (SGK1) (Homo sapiens, UniProt O00141); test: Cross kinase panel high-throughput assay; type: biochemical
T3 sequence (O00141 1-431): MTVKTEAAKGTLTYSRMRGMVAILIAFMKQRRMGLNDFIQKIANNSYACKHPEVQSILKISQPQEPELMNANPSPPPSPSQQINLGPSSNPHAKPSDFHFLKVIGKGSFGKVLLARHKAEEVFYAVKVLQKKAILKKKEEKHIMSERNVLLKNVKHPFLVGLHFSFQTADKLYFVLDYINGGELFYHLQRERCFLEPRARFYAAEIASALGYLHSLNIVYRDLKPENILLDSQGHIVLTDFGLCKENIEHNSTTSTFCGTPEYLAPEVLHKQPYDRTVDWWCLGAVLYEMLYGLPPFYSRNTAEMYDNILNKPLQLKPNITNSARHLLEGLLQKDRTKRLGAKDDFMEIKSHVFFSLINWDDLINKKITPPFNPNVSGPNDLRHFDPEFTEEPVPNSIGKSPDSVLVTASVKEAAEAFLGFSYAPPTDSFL
Method: as §4

T1 sequence (P00533 25-1210): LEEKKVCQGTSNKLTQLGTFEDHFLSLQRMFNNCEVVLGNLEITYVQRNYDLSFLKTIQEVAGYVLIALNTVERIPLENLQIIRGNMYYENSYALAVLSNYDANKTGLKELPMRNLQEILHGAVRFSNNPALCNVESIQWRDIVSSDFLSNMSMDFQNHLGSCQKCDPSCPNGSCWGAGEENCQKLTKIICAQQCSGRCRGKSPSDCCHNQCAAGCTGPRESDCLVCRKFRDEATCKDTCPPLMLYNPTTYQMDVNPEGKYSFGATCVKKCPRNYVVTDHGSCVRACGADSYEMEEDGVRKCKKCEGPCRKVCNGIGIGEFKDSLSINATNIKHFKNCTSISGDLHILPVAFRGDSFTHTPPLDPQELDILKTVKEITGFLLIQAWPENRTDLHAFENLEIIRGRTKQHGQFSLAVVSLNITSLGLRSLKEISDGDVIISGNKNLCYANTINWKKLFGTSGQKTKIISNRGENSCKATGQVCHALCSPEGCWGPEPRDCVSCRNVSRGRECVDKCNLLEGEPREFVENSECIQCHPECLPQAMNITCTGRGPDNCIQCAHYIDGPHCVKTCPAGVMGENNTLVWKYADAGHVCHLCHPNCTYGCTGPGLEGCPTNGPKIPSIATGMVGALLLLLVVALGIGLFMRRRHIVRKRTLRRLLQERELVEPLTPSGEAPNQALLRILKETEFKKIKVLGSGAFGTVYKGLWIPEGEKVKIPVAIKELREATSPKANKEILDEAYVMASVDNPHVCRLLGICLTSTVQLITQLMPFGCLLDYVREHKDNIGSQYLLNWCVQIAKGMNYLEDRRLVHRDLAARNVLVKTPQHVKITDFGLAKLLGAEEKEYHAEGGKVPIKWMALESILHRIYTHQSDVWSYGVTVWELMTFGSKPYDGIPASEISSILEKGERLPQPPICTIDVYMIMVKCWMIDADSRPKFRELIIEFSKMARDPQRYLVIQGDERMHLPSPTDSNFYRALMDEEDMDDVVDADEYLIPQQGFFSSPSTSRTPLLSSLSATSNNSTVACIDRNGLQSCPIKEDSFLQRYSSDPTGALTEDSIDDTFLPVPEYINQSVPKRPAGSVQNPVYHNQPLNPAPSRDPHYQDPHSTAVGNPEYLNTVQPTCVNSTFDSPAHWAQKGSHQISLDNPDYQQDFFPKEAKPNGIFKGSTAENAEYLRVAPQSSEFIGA
Sequence of checkpoint kinase 2 (CHEK2) (O96017 whole entry): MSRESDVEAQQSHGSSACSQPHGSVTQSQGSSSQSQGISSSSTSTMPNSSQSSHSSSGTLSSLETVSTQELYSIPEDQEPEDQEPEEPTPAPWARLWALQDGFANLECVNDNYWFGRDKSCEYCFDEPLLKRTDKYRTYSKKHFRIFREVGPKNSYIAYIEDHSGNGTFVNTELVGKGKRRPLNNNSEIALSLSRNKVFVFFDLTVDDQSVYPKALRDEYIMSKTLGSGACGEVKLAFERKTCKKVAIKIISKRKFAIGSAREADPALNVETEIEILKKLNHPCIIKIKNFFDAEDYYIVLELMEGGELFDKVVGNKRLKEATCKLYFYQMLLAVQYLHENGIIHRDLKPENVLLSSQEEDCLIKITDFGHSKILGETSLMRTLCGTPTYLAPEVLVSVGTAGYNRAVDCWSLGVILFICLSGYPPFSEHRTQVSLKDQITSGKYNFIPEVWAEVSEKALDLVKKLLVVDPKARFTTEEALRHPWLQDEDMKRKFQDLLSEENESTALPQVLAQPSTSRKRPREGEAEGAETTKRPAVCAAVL
Sequence of mitogen activated protein kinase kinase kinase 8 (MAP3K8) (P41279 whole entry): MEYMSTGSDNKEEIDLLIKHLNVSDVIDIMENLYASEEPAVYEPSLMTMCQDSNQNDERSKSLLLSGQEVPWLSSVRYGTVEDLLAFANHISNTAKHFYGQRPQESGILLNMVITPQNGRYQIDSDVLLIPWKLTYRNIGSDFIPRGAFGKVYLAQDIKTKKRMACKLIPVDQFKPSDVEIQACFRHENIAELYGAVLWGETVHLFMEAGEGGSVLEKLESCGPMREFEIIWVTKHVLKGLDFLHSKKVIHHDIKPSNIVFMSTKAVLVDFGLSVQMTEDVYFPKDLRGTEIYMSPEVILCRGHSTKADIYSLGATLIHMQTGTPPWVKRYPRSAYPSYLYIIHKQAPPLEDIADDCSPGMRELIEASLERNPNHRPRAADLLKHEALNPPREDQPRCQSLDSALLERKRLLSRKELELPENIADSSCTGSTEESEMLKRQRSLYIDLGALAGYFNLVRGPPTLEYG
Sequence of feline sarcoma kinase (FES) (P07332 whole entry): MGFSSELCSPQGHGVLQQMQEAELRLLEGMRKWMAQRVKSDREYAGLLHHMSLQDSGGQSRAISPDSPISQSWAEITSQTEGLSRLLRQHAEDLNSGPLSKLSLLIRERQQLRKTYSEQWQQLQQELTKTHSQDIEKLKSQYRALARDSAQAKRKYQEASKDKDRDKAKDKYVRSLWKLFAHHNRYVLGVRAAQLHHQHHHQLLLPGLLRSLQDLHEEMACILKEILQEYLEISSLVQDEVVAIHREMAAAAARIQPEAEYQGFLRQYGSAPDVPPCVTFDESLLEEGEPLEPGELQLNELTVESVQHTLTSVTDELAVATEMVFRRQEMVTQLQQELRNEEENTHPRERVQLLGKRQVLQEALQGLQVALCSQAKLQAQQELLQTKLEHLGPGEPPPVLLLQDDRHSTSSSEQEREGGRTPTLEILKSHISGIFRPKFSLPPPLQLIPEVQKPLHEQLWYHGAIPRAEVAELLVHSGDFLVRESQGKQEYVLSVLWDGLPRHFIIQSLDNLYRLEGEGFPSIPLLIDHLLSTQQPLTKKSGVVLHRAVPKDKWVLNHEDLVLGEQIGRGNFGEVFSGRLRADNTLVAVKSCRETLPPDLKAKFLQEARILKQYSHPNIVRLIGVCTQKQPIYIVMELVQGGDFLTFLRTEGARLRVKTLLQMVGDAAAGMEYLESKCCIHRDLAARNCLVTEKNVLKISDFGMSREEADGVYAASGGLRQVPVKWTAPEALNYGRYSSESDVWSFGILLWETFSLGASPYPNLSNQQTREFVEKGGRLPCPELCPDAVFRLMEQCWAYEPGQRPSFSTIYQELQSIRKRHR
Sequence of mitogen activated protein kinase kinase 1 (MAP2K1) (Q02750 whole entry): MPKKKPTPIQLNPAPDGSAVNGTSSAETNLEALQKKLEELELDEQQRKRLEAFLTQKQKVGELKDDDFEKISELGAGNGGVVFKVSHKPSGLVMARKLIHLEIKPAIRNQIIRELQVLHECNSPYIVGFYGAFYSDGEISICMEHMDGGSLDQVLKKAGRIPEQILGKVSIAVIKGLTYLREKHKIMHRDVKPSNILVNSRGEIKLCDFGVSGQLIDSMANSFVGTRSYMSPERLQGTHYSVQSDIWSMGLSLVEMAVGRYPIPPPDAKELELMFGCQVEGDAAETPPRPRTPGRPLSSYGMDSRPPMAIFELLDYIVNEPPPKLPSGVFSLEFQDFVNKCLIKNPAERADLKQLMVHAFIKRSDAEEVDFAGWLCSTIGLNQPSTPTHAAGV
Sequence of fibroblast growth factor 1 (FGFR1) (P11362 22-822): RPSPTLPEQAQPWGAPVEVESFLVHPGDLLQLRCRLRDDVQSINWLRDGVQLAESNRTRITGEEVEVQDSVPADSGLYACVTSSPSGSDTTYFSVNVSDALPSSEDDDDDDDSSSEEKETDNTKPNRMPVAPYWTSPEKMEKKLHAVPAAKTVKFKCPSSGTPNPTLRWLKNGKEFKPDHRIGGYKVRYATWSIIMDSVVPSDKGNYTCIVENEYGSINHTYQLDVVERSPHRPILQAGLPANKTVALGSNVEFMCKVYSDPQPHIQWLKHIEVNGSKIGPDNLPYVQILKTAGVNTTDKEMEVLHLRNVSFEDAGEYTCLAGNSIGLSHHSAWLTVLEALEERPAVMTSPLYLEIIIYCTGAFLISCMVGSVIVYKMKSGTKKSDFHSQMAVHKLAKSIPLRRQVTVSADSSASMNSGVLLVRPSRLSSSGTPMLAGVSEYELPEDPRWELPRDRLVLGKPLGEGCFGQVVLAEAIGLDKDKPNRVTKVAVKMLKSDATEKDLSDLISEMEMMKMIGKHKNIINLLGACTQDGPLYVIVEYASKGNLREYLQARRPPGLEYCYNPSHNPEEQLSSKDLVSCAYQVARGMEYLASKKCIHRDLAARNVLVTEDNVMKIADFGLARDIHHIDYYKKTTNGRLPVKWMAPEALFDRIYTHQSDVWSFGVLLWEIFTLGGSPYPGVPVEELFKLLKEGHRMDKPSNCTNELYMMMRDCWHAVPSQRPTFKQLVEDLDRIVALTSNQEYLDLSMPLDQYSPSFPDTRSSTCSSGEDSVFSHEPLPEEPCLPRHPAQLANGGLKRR

Structure (SMILES)	IC50 (MCF-7/pcDNA) [µM]	IC50 (MCF-7/HER2) [µM]	IC50 (MCF-7/HER2Δ16) [µM]	suppression of cell viability / inhibition in the high-throughput assay [1]	inhibition of autophosphorylation at HER2-Y1248 (western blot) (HER2 residue Y1248)	inhibition of phosphorylation at EGFR-Y1068 (western blot) (EGFR residue Y1068)	also measured
Cc1cc(O)c2c(c1O)C(=O)C=CC2=O [Compound 7, 5,8-dihydroxy-6-methylnaphthalene-1,4-dione]	0.32	0.29	0.51		significantly decreased HER2 activating phosphorylation to the same extent as lapatinib; also recorded: inhibit the phosphorylation	decreased; also recorded: inhibit the phosphorylation	IC50 [2]: 0.123 to 2.92 µM; fold decrease in potency versus the other cell lines (MDA-MB-231): 3-4 fold; kinase inhibition AKT1/2 [3]: ≥ 80%; inhibition at 10 µM [4]: ≥ 80%; kinase inhibition PLK1/3 [5]: ≥ 80%; inhibition at 10 µM [6]: ≥ 80%; inhibition at 10 µM [7]: ≥ 80%; inhibition at 10 µM [8]: ≥ 80%; inhibition at 10 µM (TEK tyrosine kinase): ≥ 80%; kinase inhibition AurK A/B [9]: ≥ 80%; kinase inhibition IKK B/E [10]: ≥ 80%; inhibition at 10 µM [11]: ≥ 80%; inhibition at 10 µM [12]: ≥ 80%; inhibition at 10 µM [13]: ≥ 80%
CC1C(=O)c2cc([N+](=O)[O-])cc([N+](=O)[O-])c2C1=O (stereo not shown) [Compound 28, 2-methyl-4,6-dinitro-1H-indene-1,3(2H)-dione]				did not show notable growth inhibition	shows significant phosphorylation	shows significant phosphorylation	
CC1=CC(=O)c2c(O)ccc(O)c2C1=O [Compound 6, 5,8-dihydroxy-2-methylnaphthalene-1,4-dione]					significantly decreased HER2 activating phosphorylation to the same extent as lapatinib; also recorded: inhibit the phosphorylation	decreased; also recorded: inhibit the phosphorylation	
O=C1C=CC(=O)c2c(O)cc(CBr)cc21 [Compound 26, 5-hydroxy-7-bromomethylnaphthalene-1,4-dione]				showed notable inhibition	did not show such an effect on auto-phosphorylation; also recorded: did not show notable inhibition of phosphorylation		

Continued, in another order:

IC50 (MCF-7/pcDNA) [µM]	IC50 (MCF-7/HER2) [µM]	IC50 (MCF-7/HER2Δ16) [µM]	Structure (SMILES)	suppression of cell viability / inhibition in the high-throughput assay [1]	inhibition of autophosphorylation at HER2-Y1248 (western blot) (HER2 residue Y1248)	inhibition of phosphorylation at EGFR-Y1068 (western blot) (EGFR residue Y1068)	also measured
30.9			Cc1cc(O)c2c(c1)C(=O)C=CC2=O [Compound 25, 5-hydroxy-7-methylnaphthalene-1,4-dione]	showed notable inhibition	did not show such an effect on auto-phosphorylation; also recorded: did not show notable inhibition of phosphorylation		
2.93	4.61	9.39	Cc1ccc(O)c2c1C(=O)C=CC2=O [Compound 22, 5-hydroxy-8-methylnaphthalene-1,4-dione]				
1.66	1.78	3.61	O=C1C=C(CBr)C(=O)c2c(O)ccc(O)c21 [Compound 9, 2-(bromomethyl)-5,8-dihydroxynaphthalene-1,4-dione]		significantly decreased HER2 activating phosphorylation to the same extent as lapatinib; also recorded: inhibit the phosphorylation	decreased; also recorded: inhibit the phosphorylation	
4.94	3.18	7.3	COc1cc(C)cc2c1C(=O)C=CC2=O [Compound 27, 5-methoxy-7-methylnaphthalene-1,4-dione]	showed notable inhibition	did not show such an effect on auto-phosphorylation; also recorded: did not show notable inhibition of phosphorylation		
15.7	15.8	19.2	CS(=O)(=O)CCNCc1ccc(-c2ccc3ncnc(Nc4ccc(OCc5cccc(F)c5)c(Cl)c4)c3c2)o1 [Lapatinib, reference compound]				viability at 10 µM ([1]; Homo sapiens, MCF7, 48 h): < 70%
